Measured values as given in PubChem BioAssay (NCI).
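Where inhibition never reached the appropriate level, the endpoint shown equals the highest concentration tested. Otherwise, values were interpolated linearly from a five-concentration, 48-hour dose response in 96-well plates. TGI: concentration producing complete growth inhibition.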

How the values were obtained:
Assay in all cases: NCI anticancer screen, dose series, 48 h
786-0 renal = tested on: 786-0 renal
A549 NSCLC = tested on: A549 NSCLC
DU-145 prostate = tested on: DU-145 prostate
HOP-62 NSCLC = tested on: HOP-62 NSCLC
HS 578T breast = tested on: HS 578T breast
KM12 colon = tested on: KM12 colon
LOX IMVI melanoma = tested on: LOX IMVI melanoma
MDA-MB-231 breast = tested on: MDA-MB-231 breast
NCI-H226 lung = tested on: NCI-H226 lung
NCI-H460 lung = tested on: NCI-H460 lung
OVCAR-3 ovarian = tested on: OVCAR-3 ovarian
OVCAR-5 ovarian = tested on: OVCAR-5 ovarian
OVCAR-8 ovarian = tested on: OVCAR-8 ovarian
RPMI-8226 leukemia = tested on: RPMI-8226 leukemia
SF-295 CNS = tested on: SF-295 CNS
SK-OV-3 ovarian = tested on: SK-OV-3 ovarian
SN12C renal = tested on: SN12C renal
T-47D breast = tested on: T-47D breast
UACC-62 melanoma = tested on: UACC-62 melanoma
NCI-H522 lung = tested on: NCI-H522 lung

Row | Compound | TGI (786-0 renal) | TGI (A549 NSCLC) | TGI (DU-145 prostate) | TGI (HOP-62 NSCLC) | TGI (HS 578T breast) | TGI (KM12 colon) | TGI (LOX IMVI melanoma) | TGI (MDA-MB-231 breast) | TGI (NCI-H226 lung) | TGI (NCI-H460 lung) | TGI (OVCAR-3 ovarian) | TGI (OVCAR-5 ovarian) | TGI (OVCAR-8 ovarian) | TGI (RPMI-8226 leukemia) | TGI (SF-295 CNS) | TGI (SK-OV-3 ovarian) | TGI (SN12C renal) | TGI (T-47D breast) | TGI (UACC-62 melanoma) | TGI (NCI-H522 lung)
1 | CC(=O)C(=[N+]=[N-])C(=O)N1CCOC1=O | > 10 µM | > 10 µM | > 10 µM | > 10 µM | > 10 µM | > 10 µM | > 10 µM | > 10 µM | > 10 µM | > 10 µM | > 10 µM | > 10 µM | > 10 µM | > 10 µM | > 10 µM | > 10 µM | > 10 µM | > 10 µM | > 10 µM | 
2 | CC[C@H](C)[C@H]1NC(=O)[C@@H](NC(=O)[C@@H](CC(C)C)N(C)C(=O)C2CCCN2C(=O)[C@H](C)O)[C@@H](C)OC(=O)[C@H](Cc2ccc(OC)cc2)N(C)C(=O)[C@@H]2CCCN2C(=O)[C@H](CCCCNC(=O)OCc2ccccc2)NC(=O)[C@H](C)C(=O)[C@H](C(C)C)OC(=O)C[C@@H]1O (some centres undefined) | > 25 µM | > 25 µM | > 25 µM | > 25 µM | 8.35 µM | 19.4 µM | > 25 µM |  | > 25 µM | > 25 µM | 24.8 µM | > 25 µM | > 25 µM | 19.7 µM | > 25 µM | > 25 µM | > 25 µM | > 25 µM | > 25 µM | > 25 µM
3 | COC(=O)C(N)CCCC(N)C(=O)NC(C)C(=O)NC(CCC(=O)NCCNCCNc1c2ccccc2nc2cccc([N+](=O)[O-])c12)C(N)=O (centres undefined) | > 31 µM | > 43.6 µM | > 66.1 µM | 53.7 µM | 38.8 µM | 67.2 µM | 43 µM | 53.1 µM | 39.4 µM | 55 µM | 47.7 µM | > 100 µM | 42.3 µM | 34.6 µM | > 100 µM | > 100 µM | 39.5 µM | 45.8 µM | 27.1 µM | 
4 | COc1ccccc1NC(=S)N/N=C/c1c(C)n(C)n(-c2ccccc2)c1=O | > 100 µM |  | > 100 µM | > 100 µM | > 100 µM | > 100 µM | > 100 µM | > 100 µM | > 100 µM | > 100 µM |  |  | > 100 µM | > 100 µM | > 100 µM | > 100 µM |  | > 100 µM | > 100 µM | 
5 | O=c1[nH]c2ccccc2c(=O)n1/N=C/c1ccc(O)cc1 | > 100 µM | > 100 µM | > 100 µM | 48 µM | 74.6 µM | > 100 µM | > 100 µM | > 100 µM | > 100 µM | > 100 µM | > 100 µM | > 100 µM | > 100 µM | > 100 µM | > 100 µM | > 100 µM | > 100 µM | > 100 µM | > 100 µM | 
6 | CCOC(=O)c1c(N)n(-c2ccccc2)c(=O)n(-c2ccccc2)c1=O | > 100 µM | > 100 µM | > 100 µM |  | > 100 µM | > 100 µM | > 100 µM | > 100 µM | > 100 µM | > 100 µM | > 100 µM | > 100 µM | > 100 µM | > 100 µM | > 100 µM |  | > 100 µM | > 100 µM | > 100 µM | > 100 µM
